Source: patent US9687571B2, “Stabilization of radiopharmaceutical compositions using ascorbic acid” (Lantheus Medical Imaging, Inc., priority 2009, dated 2017)

How the values were obtained:
[1] = Effect of ascorbic acid concentration on radiochemical purity (Example 4); assay type: physicochemical; conditions: pH 5.8, FIG. 3
Protocol: The integrity of a radiopharmaceutical is measured by the radiochemical purity (RCP) of the radiolabeled compound using ITLC or more preferably HPLC. The advantage of using HPLC is that radio-impurities caused by radiolytic degradation can be separated from the radiopharmaceutical under certain chromatographic conditions. […] The radiopharmaceutical compositions of this invention are effective in maintaining the stability of samples for up to ten hours.
This example describes the effect of ascorbic acid concentration on radiochemical purity. In this example, the radiochemical purity (RCP) of the ^18F-labeled drug product (2-tert-butyl-4-chloro-5-[4-(2-[^18F]fluoro-ethoxymethyl)-benzyloxy]-2H-pyridazin-3-one) was monitored for solutions having an ascorbic acid concentration range from 200 mg/mL (saturation level) to 20 mg/mL, at pH 5.8.

[2] = Acid/base and solution properties of ascorbic acid; assay type: physicochemical; conditions: aqueous dose solution, pH 5.8

Row | SMILES | radiochemical purity (RCP) level ([1]; ascorbic acid 20 mg/mL) | radiochemical purity (RCP) level ([1]; ascorbic acid 200 to 50 mg/mL) | saturation level (concentration) [2]
1 | CC(C)(C)n1ncc(OCc2ccc(COCC[18F])cc2)c(Cl)c1=O [2-tert-butyl-4-chloro-5-[4-(2-[^18F]fluoro-ethoxymethyl)-benzyloxy]-2H-pyridazin-3-one] | increase in impurities (i.e., lower RCP level) | do not significantly change | 
2 | O=C1O[C@H]([C@@H](O)CO)C(O)=C1O [Ascorbic acid] |  |  | 200 mg/mL
